pIC50: −log10 of the molar value.
Legend:
Type in all cases: cell-based
[1] = biological target: T1, EGFR-L858R/C797S (H1975-clone #8 cells) (Homo sapiens, UniProt P00533, C797S/L858R); experiment: Cell degradation of EGFR, HTRF assay, H1975-clone#8 (L858R/C797S) cells; conditions: 16 h treatment; for DC50: EGFR degradation; for Dmax: maximum percentage of degradation
T1 construct: expressed in transfected cells; host or cells: H1975 (endogenous EGFR knocked out, clone #8)

[2] = biological target: T2, p-EGFR L858R (BaF3-L858R cells) (Homo sapiens, UniProt P00533, L858R); experiment: Cell p-EGFR inhibition assay, HTRF, BaF3-L858R cells; conditions: 16 h treatment; for Imax (%): maximum percentage of pEGFR inhibition; for pIC50: pEGFR inhibition
T2 construct: host or cells: BaF3
Method in brief: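 BaF3-L858R cells treated 16 h at 37 °C, 5% CO2 with compound from 10 uM top, 5-fold dilutions, 8 doses, in 0.1% DMSO medium. Lysates read overnight by HTRF p-EGFR antibodies; IC50 fitted to four-parameter curve against DMSO high control.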

[3] = biological target: T3, EGFR L858R (BaF3-L858R cells) (Homo sapiens, UniProt P00533, L858R); experiment: Cell degradation of EGFR, HTRF assay, BaF3-L858R cells; conditions: 16 h treatment; for DC50: EGFR degradation; for Dmax: maximum percentage of degradation
T3 construct: host or cells: BaF3
Method in brief: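 BaF3-L858R cells treated 16 h at 37° C, 5% CO2 with compound (top 10 uM final, 5-fold, 8 doses, 0.1% DMSO). DC50 from four-parameter fit; Dmax is maximum percent degradation.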

[4] = biological target: p-EGFR Del19/C797S (H1975-clone #23 cells) (Homo sapiens, UniProt P00533); experiment: Cell p-EGFR inhibition assay, HTRF, H1975-clone#23 (DEL19/C797S) cells; conditions: 16 h treatment; for Imax (%): maximum percentage of pEGFR inhibition; for pIC50: pEGFR inhibition
Method in brief: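 Phospho-EGFR read by overnight HTRF on lysates, normalized to DMSO-treated high control; IC50, Hill slope and Imax fitted. Compounds were applied for 16 h (10 uM top, 5-fold steps, 8 doses) to an H1975 single clone carrying only exogenous Del19/C797S EGFR after sgRNA knockout of endogenous copies.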

SMILES | DC50 [1] [nM] | Dmax [1] [%] | Imax (%) [2] [%] | pIC50 [2] | DC50 [3] [nM] | Dmax [3] [%] | Imax (%) [4] [%] | pIC50 [4]
Cc1cc2cc(n1)-c1cnn(C)c1OC[C@H]1CCC(C1)CN1/C(=N/C2=O)Nc2ccc(N3CC(N(C)C4CCN(c5cc(F)c([C@H]6CCC(=O)NC6=O)c(F)c5)CC4)C3)cc21 [Example 124, (R)-3-(4-(4-((1-((7^1R,7^3S,E)-1^1,2^6-dimethyl-3-oxo-5^2,5^3-dihydro-1^1H,5^1H-9-oxa-4-aza-5(2,1)-benzo[d]imidazola-2(2,4)-pyridina-1(4,5)-pyrazola-7(1,3)-cyclopentanacyclononaphane-5^6-yl)azetidin-3-yl)(methyl)amino)piperidin-1-yl)-2,6-difluorophenyl)piperidine-2,6-dione] | 2.3 | 67.5 | 94.6 | 7.77 | 3.58 | 71.1 | 99.6 | 9.05
Cc1cc2cc(n1)-c1cnn(C)c1OC[C@H]1CCC(C1)CN1/C(=N/C2=O)Nc2ccc(N3CC4(CCN(C5CCN(c6cc(F)c([C@H]7CCC(=O)NC7=O)c(F)c6)CC5)CC4)C3)cc21 [Example 125, (R)-3-(4-(4-(2-((7^1R,7^3S,E)-1^1,2^6-dimethyl-3-oxo-5^2,5^3-dihydro-1^1H,5^1H-9-oxa-4-aza-5(2,1)-benzo[d]imidazola-2(2,4)-pyridina-1(4,5)-pyrazola-7(1,3)-cyclopentanacyclononaphane-5^6-yl)-2,7-diazaspiro[3.5]nonan-7-yl)piperidin-1-yl)-2,6-difluorophenyl)piperidine-2,6-dione] | 2.61 | 67.4 | 98.6 | 7.69 | 1.37 | 77.1 | 101.9 | 8.66
COC[C@@H]1CN(c2ccc3c(c2)N2CC4CC[C@H](COc5c(c(C)nn5C)-c5cc(cc(C)n5)C(=O)/N=C/2N3)C4)CCN1CC1CCN(c2cc(F)c([C@H]3CCC(=O)NC3=O)c(F)c2)CC1 [Example 127, (R)-3-(2,6-difluoro-4-(4-(((S)-2-(methoxymethyl)-4-((7^1R,7^3S,E)-1^1,1^3,2^6-trimethyl-3-oxo-5^2,5^3-dihydro-1^1H,5^1H-9-oxa-4-aza-5(2,1)-benzo[d]imidazola-2(2,4)-pyridina-1(4,5)-pyrazola-7(1,3)-cyclopentanacyclononaphane-5^6-yl)piperazin-1-yl)methyl)piperidin-1-yl)phenyl)piperidine-2,6-dione] | 6.07 | 81.9 | 101.7 | 8.31 | 9.26 | 88.8 | 100.85 | 8.39
COC[C@@H]1CN(c2ccc3c(c2)N2CC4CC[C@H](COc5c(c(C)nn5C)-c5cc(cc(C)n5)C(=O)/N=C/2N3)C4)CCN1C1CCN(c2c(F)cc(NC3CCC(=O)NC3=O)cc2F)CC1 (stereo partly drawn) [Example 133, 3-((3,5-difluoro-4-(4-((S)-2-(methoxymethyl)-4-((7R,7^3S,E)-1^1,1^3,2^6-trimethyl-3-oxo-5^2,5^3-dihydro-1^1H,5^1H-9-oxa-4-aza-5(2,1)-benzo[d]imidazola-2(2,4)-pyridina-1(4,5)-pyrazola-7(1,3)-cyclopentanacyclononaphane-5^6-yl)piperazin-1-yl)piperidin-1-yl)phenyl)amino)piperidine-2,6-dione] | 2.94 | 86.5 | 96.88 | 8.54 | 2.36 | 85.7 | 99.55 | 8.84
Cc1cc2cc(n1)-c1c(C)nn(C)c1OC[C@H]1CCC(C1)CN1/C(=N/C2=O)Nc2ccc(N3CCN(CC4CCN(c5cc(F)c([C@H]6CCC(=O)NC6=O)c(F)c5)CC4)[C@H](C)C3)cc21 [Example 134, (R)-3-(2,6-difluoro-4-(4-(((R)-2-methyl-4-((7^1R,7^3S,E)-1^1,1^3,2^6-trimethyl-3-oxo-5^2,5^3-dihydro-1^1H,5^1H-9-oxa-4-aza-5(2,1)-benzo[d]imidazola-2(2,4)-pyridina-1(4,5)-pyrazola-7(1,3)-cyclopentanacyclononaphane-5^6-yl)piperazin-1-yl)methyl)piperidin-1-yl)phenyl)piperidine-2,6-dione] | 4.97 | 79.9 | 98.27 | 8.60 | 1.89 | 85.9 | 92.81 | 8.75

The next compounds have a lower DC50 [1] than those just listed; values first:

DC50 [1] [nM] | Dmax [1] [%] | Imax (%) [2] [%] | pIC50 [2] | DC50 [3] [nM] | Dmax [3] [%] | Imax (%) [4] [%] | pIC50 [4] | SMILES
1.49 | 73.7 | 99.16 | 7.88 | 2.04 | 83.3 | 102.92 | 8.84 | Cc1cc2cc(n1)-c1cnn(C)c1OC[C@H]1CCC(C1)CN1/C(=N/C2=O)Nc2ccc(N3CC4(CCN(C5CN(c6cc(F)c([C@H]7CCC(=O)NC7=O)c(F)c6)C5)CC4)C3)cc21 [Example 126, (R)-3-(4-(3-(2-((7^1R,7^3S,E)-1^1,2^6-dimethyl-3-oxo-5^2,5^3-dihydro-1^1H,5^1H-9-oxa-4-aza-5(2,1)-benzo[d]imidazola-2(2,4)-pyridina-1(4,5)-pyrazola-7(1,3)-cyclopentanacyclononaphane-5^6-yl)-2,7-diazaspiro[3.5]nonan-7-yl)azetidin-1-yl)-2,6-difluorophenyl)piperidine-2,6-dione]
0.867 | 72 | 102.8 | 8.19 | 4.84 | 69.1 | 103.08 | 9.10 | Cc1cc2cc(n1)-c1cnn(C)c1OC[C@H]1CCC(C1)CN1/C(=N/C2=O)Nc2ccc(N3CCC(CN4CCC(Nc5cc(F)c([C@H]6CCC(=O)NC6=O)c(F)c5)CC4)CC3)cc21 [Example 131, (R)-3-(4-((1-((1-((7^1R,7^3S,E)-1^1,2^6-dimethyl-3-oxo-5^2,5^3-dihydro-1^1H,5^1H-9-oxa-4-aza-5(2,1)-benzo[d]imidazola-2(2,4)-pyridina-1(4,5)-pyrazola-7(1,3)-cyclopentanacyclononaphane-5^6-yl)piperidin-4-yl)methyl)piperidin-4-yl)amino)-2,6-difluorophenyl)piperidine-2,6-dione]
2.05 | 66 | 97.32 | 7.20 | 3.22 | 81 | 100.62 | 9.20 | Cc1cc2cc(n1)-c1cnn(C)c1OC[C@H]1CCC(C1)CN1/C(=N/C2=O)Nc2ccc(N3CCC(CN4CC(Nc5cc(F)c([C@H]6CCC(=O)NC6=O)c(F)c5)C4)CC3)cc21 [Example 132, (R)-3-(4-((1-((1-((7^1R,7^3S,E)-1^1,2^6-dimethyl-3-oxo-5^2,5^3-dihydro-1^1H,5^1H-9-oxa-4-aza-5(2,1)-benzo[d]imidazola-2(2,4)-pyridina-1(4,5)-pyrazola-7(1,3)-cyclopentanacyclononaphane-5^6-yl)piperidin-4-yl)methyl)azetidin-3-yl)amino)-2,6-difluorophenyl)piperidine-2,6-dione]
1.91 | 86.9 | 104.33 | 8.63 | 3.08 | 89.1 | 104.78 | 8.85 | Cc1cc2cc(n1)-c1c(C)nn(C)c1OC[C@H]1CCC(C1)CN1/C(=N/C2=O)Nc2ccc(N3CCN(C4CCN(c5cc(F)c([C@H]6CCC(=O)NC6=O)c(F)c5)CC4)[C@@H](C)C3)cc21 [Example 135, (R)-3-(2,6-difluoro-4-(4-((S)-2-methyl-4-((7^1R,7^3S,E)-1^1,1^3,2^6-trimethyl-3-oxo-5^2,5^3-dihydro-1^1H,5^1H-9-oxa-4-aza-5(2,1)-benzo[d]imidazola-2(2,4)-pyridina-1(4,5)-pyrazola-7(1,3)-cyclopentanacyclononaphane-5^6-yl)piperazin-1-yl)piperidin-1-yl)phenyl)piperidine-2,6-dione]
0.152 | 76.1 | 104.73 | 8.05 | 3.52 | 81.1 | 103.49 | 8.84 | Cc1cc2cc(n1)-c1c(C)nn(C)c1OC[C@H]1CCC(C1)CN1/C(=N/C2=O)Nc2ccc(N3CCC(N(C)C4CCN(c5cc(F)c([C@H]6CCC(=O)NC6=O)c(F)c5)CC4)CC3)cc21 [Example 136, (R)-3-(2,6-difluoro-4-(4-(methyl(1-((7^1R,7^3S,E)-1^1,1^3,2^6-trimethyl-3-oxo-5^2,5^3-dihydro-1^1H,5^1H-9-oxa-4-aza-5(2,1)-benzo[d]imidazola-2(2,4)-pyridina-1(4,5)-pyrazola-7(1,3)-cyclopentanacyclononaphane-5^6-yl)piperidin-4-yl)amino)piperidin-1-yl)phenyl)piperidine-2,6-dione]

Source: patent US20240425523A1, “Compounds for the Degradation of EGFR Kinase” (Beigene Switzerland GMBH, priority 2023, published 2024)
